Test results published in publication PMC11968506, “Toxicokinetics and analytical toxicology of the phenmetrazine-derived new psychoactive substance 3,4-methylenedioxyphenmetrazine studied by means of in vitro systems” (Archives of Toxicology, 2025).

Experiments:
[1] = biological target: T1, CYP2D6 (Homo sapiens, UniProt P10635); assay: Monooxygenase mapping (ten human cDNA-expressed CYP isoforms and FMO3); assay type: in vitro ADME; design: Then, pHLM (0.4 mg microsomal protein/mL) was added to each group except the negative control; tissue Discovery Life Sciences; host or cells: pooled human liver microsomes, 25 donors; details: MDPM 25 µM, CYP 50 pmol/mL each or FMO3 0.25 mg protein/mL, 90 and 270 min
Method: As described elsewhere (Wagmann et al. [2016]) and with minor modifications, MDPM (25 µM) was incubated with 2.5 mM isocitrate, 0.8 U/mL isocitrate dehydrogenase, 100 U/mL superoxide dismutase, 0.6 mM NADP^+, 2.5 mM Mg^2+ and CYP1A2, CYP2A6, CYP2B6, CYP2C8, CYP2C9, CYP2C19, CYP2D6, CYP2E1, CYP3A4, CYP3A5 (50 pmol/mL each), or FMO3 (0.25 mg protein/mL) for 90 and 270 min at 37 °C. For incubations with CYP2A6 or CYP2C9, phosphate buffer was replaced with 90 mM Tris buffer, according to the manufacturer’s guideline. Thirty µL aliquots were taken at both timepoints. The reaction was stopped using 20 µL acetonitrile (− 20 °C) with 2.5 µM trimipramine-d3 as an internal standard. All incubations were done in duplicates and concentrations are final. […] Negative control samples without enzymes and blank samples without substrate were incubated to identify not metabolically formed compounds and to confirm the absence of interfering compounds.

[2] = biological target: T1, CYP2D6; assay: CYP inhibition cocktail assay in pHLM, CYP2D6 (dextromethorphan)
Method: (§1) A modified dual-cocktail based method (Dinger et al. [2014b]) was used. Substrate cocktail A consisted of 8.9 µM dextromethorphan (CYP2D6), 86 µM testosterone (CYP3A4), 3.5 µM diclofenac (CYP2C9), and 12 µM phenacetin (CYP1A2). Substrate cocktail B included 30 µM bupropion (CYP2B6), 2 µM amodiaquine (CYP2C8) and 21 µM omeprazole (CYP2C19). Substrate concentrations were near their respective Michaelis–Menten constant (Km) values (Dinger et al. [2014a]) and all concentrations are final. Enzyme inhibition was investigated using a positive control, a test group, a control group, an interference group, and a negative control. In the test group, specific inhibitors were replaced by MDPM (20 µM). Instead of inhibitors, phosphate buffer was used in the control group. Enzymes were replaced with phosphate buffer in the negative control group. The interference group was incubated like the control group, but the reaction was stopped with 20 µM MDPM in acetonitrile, also containing 2.5 µM trimipramine-d3. All groups were incubated with a NADPH-regenerating system, consisting of 5 mM isocitrate, 2 U/mL isocitrate dehydrogenase, 5 mM Mg^2+, and 1.2 mM NADP^+. Further, substrate cocktail A or B, 90 mM phosphate buffer (pH 7.4), and 200 U/mL superoxide dismutase were added to each group. […] All groups were preincubated for 10 min at 37 °C. Then, pHLM (0.4 mg microsomal protein/mL) was added to each group except the negative control. Incubations were done for 15 min at 37 °C. Therefore, 50 µL of acetonitrile (− 20 °C) containing 2.5 µM trimipramine-d3 as internal standard was added. Incubations were done in triplicates and organic solvent in the incubation mixture was below 1% (Chauret et al. [1998]). Afterwards the samples were vortexed and centrifuged for 2 min at 18,407×g. 70 µL of the supernatant were transferred to autosampler vials and 10 µL were injected onto the LC-HRMS/MS system. Enzyme inhibition was evaluated by metabolite formation. […] The following settings were used: unpaired; one-tailed; significance level, 0.05; confidence intervals, 99%.

[3] = biological target: CYP3A4 (Homo sapiens, UniProt P08684); assay: CYP inhibition cocktail assay in pHLM, CYP3A4 (testosterone)
Method: A modified dual-cocktail based method (Dinger et al. [2014b]) was used. Substrate cocktail A consisted of 8.9 µM dextromethorphan (CYP2D6), 86 µM testosterone (CYP3A4), 3.5 µM diclofenac (CYP2C9), and 12 µM phenacetin (CYP1A2). Substrate cocktail B included 30 µM bupropion (CYP2B6), 2 µM amodiaquine (CYP2C8) and 21 µM omeprazole (CYP2C19). Substrate concentrations were near their respective Michaelis–Menten constant (Km) values (Dinger et al. [2014a]) and all concentrations are final. Enzyme inhibition was investigated using a positive control, a test group, a control group, an interference group, and a negative control. In the test group, specific inhibitors were replaced by MDPM (20 µM). Instead of inhibitors, phosphate buffer was used in the control group. Enzymes were replaced with phosphate buffer in the negative control group. The interference group was incubated like the control group, but the reaction was stopped with 20 µM MDPM in acetonitrile, also containing 2.5 µM trimipramine-d3. All groups were incubated with a NADPH-regenerating system, consisting of 5 mM isocitrate, 2 U/mL isocitrate dehydrogenase, 5 mM Mg^2+, and 1.2 mM NADP^+. Further, substrate cocktail A or B, 90 mM phosphate buffer (pH 7.4), and 200 U/mL superoxide dismutase were added to each group. […] All groups were preincubated for 10 min at 37 °C. […] Enzyme inhibition was evaluated by metabolite formation. […]

[4] = In vitro half-life by substrate depletion in pHLS9; assay type: in vitro ADME; details: human, pooled human liver S9 fraction (pHLS9), pHLS9, 25 µM substrate, sampling 0-180 min, read-out: in vitro half-life (t1/2)
Method: Incubations with pHLS9 were performed in accordance with previous publications and minor adjustments (Richter et al. [2017]). First, 25 μg/mL alamethicin (UGT reaction mix B), pHLS9 (2 mg microsomal protein/mL), 0.1 mM AcCoA, 2.3 mM acetylcarnitine, 8 U/mL carnitine acetyltransferase, 2.5 mM isocitrate, 0.8 U/mL isocitrate dehydrogenase, 100 U/mL superoxide dismutase, 0.6 mM NADP^+ and 2.5 mM Mg^2+ were preincubated for 10 min at 37 °C. Then, 2.5 mM UDP-glucuronic acid (UGT reaction mix A), 40 µM PAPS, 1.2 mM SAM, 1 mM DTT and 10 mM GSH were added. The reaction was started by adding the respective substrate MDPM, MDMA, or quetiapine (25 µM each). MDMA and quetiapine were incubated as positive controls. Negative control samples without enzymes and blank samples without substrates were incubated to identify not metabolically formed compounds and to confirm the absence of interfering compounds. […] Aliquots (50 µL) were transferred to a new reaction tube after 60 and 360 min. […] Samples were vortexed, stored at − 20 °C for 30 min, and centrifuged for 2 min at 18,407×g.
Incubations to investigate in vitro half-life were performed under the same incubation conditions as described above and done in duplicate. […] A t-test was performed to compare absolute peak areas of the incubation group and the control group at 0 min. […]
In vitro half-life was determined by measuring substrate depletion. […]

[5] = biological target: CYP2C9 (Homo sapiens, UniProt P11712); assay: CYP inhibition cocktail assay in pHLM, CYP2C9 (diclofenac); details: inhibitor 20 µM
Method: as §1

T1 sequence (P10635 whole entry, canonical isoform): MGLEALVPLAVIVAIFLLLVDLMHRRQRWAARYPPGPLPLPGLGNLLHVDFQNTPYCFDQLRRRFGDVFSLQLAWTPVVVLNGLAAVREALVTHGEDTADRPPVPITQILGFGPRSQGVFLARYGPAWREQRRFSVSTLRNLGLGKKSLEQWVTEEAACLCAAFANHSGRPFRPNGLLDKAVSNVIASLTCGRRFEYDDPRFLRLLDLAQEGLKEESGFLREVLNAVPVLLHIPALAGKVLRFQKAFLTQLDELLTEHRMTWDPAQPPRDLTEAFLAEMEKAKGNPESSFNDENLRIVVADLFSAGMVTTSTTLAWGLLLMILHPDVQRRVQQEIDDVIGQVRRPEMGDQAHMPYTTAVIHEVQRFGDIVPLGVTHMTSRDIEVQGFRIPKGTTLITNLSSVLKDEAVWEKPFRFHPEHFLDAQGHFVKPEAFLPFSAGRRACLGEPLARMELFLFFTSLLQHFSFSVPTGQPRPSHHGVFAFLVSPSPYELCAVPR
Chain of CYP2C9 (P11712 whole entry): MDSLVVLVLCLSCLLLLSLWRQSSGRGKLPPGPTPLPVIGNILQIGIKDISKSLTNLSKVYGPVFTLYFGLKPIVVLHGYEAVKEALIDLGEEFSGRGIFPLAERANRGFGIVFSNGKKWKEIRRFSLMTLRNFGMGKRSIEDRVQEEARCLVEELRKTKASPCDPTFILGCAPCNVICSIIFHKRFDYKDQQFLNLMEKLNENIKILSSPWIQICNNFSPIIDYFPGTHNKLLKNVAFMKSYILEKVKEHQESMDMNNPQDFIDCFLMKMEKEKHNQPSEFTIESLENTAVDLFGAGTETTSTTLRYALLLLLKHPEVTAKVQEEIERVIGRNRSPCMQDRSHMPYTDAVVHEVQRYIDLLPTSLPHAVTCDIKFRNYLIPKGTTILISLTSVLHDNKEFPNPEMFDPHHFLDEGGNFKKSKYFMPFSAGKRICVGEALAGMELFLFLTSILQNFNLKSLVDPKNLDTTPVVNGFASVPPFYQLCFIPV
Chain of CYP3A4 (P08684 whole entry): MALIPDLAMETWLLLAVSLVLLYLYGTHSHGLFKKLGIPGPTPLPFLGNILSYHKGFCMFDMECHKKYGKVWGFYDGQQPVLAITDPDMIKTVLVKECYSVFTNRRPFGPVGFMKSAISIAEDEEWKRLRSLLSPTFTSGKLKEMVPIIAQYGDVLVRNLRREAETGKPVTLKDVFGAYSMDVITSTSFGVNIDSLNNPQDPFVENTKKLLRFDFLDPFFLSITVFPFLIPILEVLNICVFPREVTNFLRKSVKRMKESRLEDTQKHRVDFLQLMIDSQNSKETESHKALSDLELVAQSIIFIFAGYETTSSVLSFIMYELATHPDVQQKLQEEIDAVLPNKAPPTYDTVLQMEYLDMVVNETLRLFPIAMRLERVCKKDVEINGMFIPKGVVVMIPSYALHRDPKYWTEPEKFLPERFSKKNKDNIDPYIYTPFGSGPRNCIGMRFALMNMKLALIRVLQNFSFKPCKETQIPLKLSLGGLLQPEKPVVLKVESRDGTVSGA

In the case of `CC1NCCOC1c1ccc2c(c1)OCO2` (centres unmarked) [MDPM, 2-(1,3-benzodioxol-5-yl)-3-methylmorpholine], the “isozymes forming the demethylenyl metabolite (O-demethylenation of MDPM)” value [1] is reported as “exclusively by CYP2D6”, the inhibition at 15 min, 20 µM ([2]; human, pH 7.4) is reported as 77% and the CYP2D6 metabolite formation ([2]; inhibitor 20 µM, dextromethorphan 8.9 µM, pHLM 0.4 mg/mL, 15 min, control without inhibitor = 100%) is reported as 23%. It also gave an inhibition at 15 min, 20 µM ([3]; human, pH 7.4) of 28%, a CYP3A4 metabolite formation ([3]; inhibitor 20 µM, testosterone 86 µM, pHLM 0.4 mg/mL, 15 min, control without inhibitor = 100%) of 72% and a half-life at 25 µM [4] of over 3 h. The CYP2C9 metabolite formation ([5]; diclofenac 3.5 µM, pHLM 0.4 mg/mL, 15 min, control without inhibitor = 100%) was 115% and the “inhibition of CYP2C9” value ([5]; diclofenac, pHLM, t-test versus control) was “no significant inhibition”.
